Measurements as given in patent US10221138B2, “Biaryl derivatives as GPR120 agonists” (LG CHEM, LTD., priority 2013, dated 2019).
Like-named read-outs stand apart in the source and are kept apart here.

Biological target: T1, hGPR120 (Homo sapiens, UniProt Q5NUL3)
T1 construct: expressed in transfected cells; host or cells: CHO-K1
T1 sequence (Q5NUL3 1-361): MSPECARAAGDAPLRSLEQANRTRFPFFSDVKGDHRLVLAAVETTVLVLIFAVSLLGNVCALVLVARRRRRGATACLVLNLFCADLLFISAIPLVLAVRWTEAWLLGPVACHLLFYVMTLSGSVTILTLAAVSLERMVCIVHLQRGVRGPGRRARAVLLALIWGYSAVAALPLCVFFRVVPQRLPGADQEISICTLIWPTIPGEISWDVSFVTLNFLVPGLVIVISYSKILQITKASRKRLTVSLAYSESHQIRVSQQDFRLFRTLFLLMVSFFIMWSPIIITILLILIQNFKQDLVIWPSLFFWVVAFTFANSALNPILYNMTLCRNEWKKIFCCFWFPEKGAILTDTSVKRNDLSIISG
Experiment: Measurement of activity of GPR120 agonist (cell-based calcium fluorescence assay)
Experimental: CHO-K1 cells expressing Ga16 and hGPR120 were dispensed into each well of a 96-well plate (3×10^4 cells/100 μl/well) and then incubated in 5% CO2, 37° C. incubator for 18 hours. Each well was treated with 100 μl of Calcium 5 dye (Molecular Devices) solution including 2% DMSO and then incubated in 5% CO2, 37° C. incubator for 1 hour. Serially diluted GPR120 agonists were prepared to a final concentration of 0.5% DMSO in a 96-well plate.
Fluorescence increased by the serially diluted GPR120 agonists is calculated as a relative percent (%) value based on the fluorescence represented by the treatment of 1% DMSO only. […] The calculation of measurement was carried out by using statistical software (Prizm).
Activity is denoted based on the following criteria: […]

[1] = CHO-K1 cells expressing Ga16 and hGPR120, Calcium 5 dye fluorescence, activity class, read-out: EC50

Row | SMILES | EC50 [1] | EC50
1 | CC(C)Nc1ncccc1-c1cc(F)c(OCCCC(=O)O)c(F)c1 [Example 76, 4-[2,6-difluoro-4-[2-(isopropylamino)-3-pyridyl]phenoxy]butanoic acid] | 200 to 2000 nM | 
2 | CC(C)Nc1cccc(-c2cc(F)c(OCCCC(=O)O)c(F)c2)n1 [Example 78, 4-[2,6-difluoro-4-[6-(isopropylamino)-2-pyridyl]phenoxy]butanoic acid] | 200 to 2000 nM | 
3 | O=C(O)CCCOc1c(F)cc(-c2cccc(NCC3CC3)c2)cc1F [Example 90, 4-[4-[3-(cyclopropylmethylamino)phenyl]-2,6-difluoro-phenoxy]butanoic acid] | < 200 nM | 
4 | CC(C)Nc1cccc(-c2cc(F)c(OCCCC(=O)O)c(F)c2)c1 [Example 91, 4-[2,6-difluoro-4-[3-(isopropylamino)phenyl]phenoxy]butanoic acid] | < 200 nM | 
5 | O=C(O)CCCOc1c(F)cc(-c2cccc(N3CCCC3)c2)cc1F [Example 92, 4-[2,6-difluoro-4-(3-pyrrolidin-1-ylphenyl)phenoxy]butanoic acid] | < 200 nM | 
6 | CCCNc1cccc(-c2cc(F)c(OCCCC(=O)O)c(F)c2)c1 [Example 94, 4-[2,6-difluoro-4-[3-(propylamino)phenyl]phenoxy]butanoic acid] | 200 to 2000 nM | 
7 | O=C(O)CCCOc1c(F)cc(-c2cccc(C3CCCC3)c2)cc1F [Example 97, 4-[4-(3-cyclopentylphenyl)-2,6-difluoro-phenoxy]butanoic acid] | < 200 nM | 
8 | O=C(O)CCCOc1c(F)cc(-c2cccc(CC3CCCC3)c2)cc1F [Example 98, 4-[4-[3-(cyclopentylmethyl)phenyl]-2,6-difluoro-phenoxy]butanoic acid] | 200 to 2000 nM | 
9 | O=C(O)CCCOc1c(F)cc(-c2cccc(CC3CCCC3)n2)cc1F [Example 100, 4-[4-[6-(cyclopentylmethyl)-2-pyridyl]-2,6-difluoro-phenoxy]butanoic acid] | < 200 nM | 
10 | O=C(O)CCCOc1c(F)cc(-c2cccc(CC3CCC3)c2)cc1F [Example 102, 4-[4-[3-(cyclobutylmethyl)phenyl]-2,6-difluoro-phenoxy]butanoic acid] | < 200 nM | 
11 | O=C(O)CCCOc1c(F)cc(-c2cccc(CC3CCC3)n2)cc1F [Example 103, 4-[4-[6-(cyclobutylmethyl)-2-pyridyl]-2,6-difluoro-phenoxy]butanoic acid] | < 200 nM | 
12 | O=C(O)CCCOc1c(F)cc(-c2cccc(C3CCCC3)n2)cc1F [Example 105, 4-[4-(6-cyclopentyl-2-pyridyl)-2,6-difluoro-phenoxy]butanoic acid] | < 200 nM | 
13 | CC(C)Cc1ncccc1-c1cc(F)c(OCCCC(=O)O)c(F)c1 [Example 106, 4-[2,6-difluoro-4-(2-isobutyl-3-pyridyl)phenoxy]butanoic acid] | 2000 to 20000 nM | 
14 | O=C(O)CCCOc1c(F)cc(-c2cccnc2C2CCCC2)cc1F [Example 107, 4-[4-(2-cyclopentyl-3-pyridyl)-2,6-difluoro-phenoxy]butanoic acid] | 200 to 2000 nM | 
15 | O=C(O)CCCOc1c(F)cc(-c2cccnc2CC2CCCC2)cc1F [Example 108, 4-[4-[2-(cyclopentylmethyl)-3-pyridyl]-2,6-difluoro-phenoxy]butanoic acid] | < 200 nM | 
16 | O=C(O)CCCOc1c(F)cc(-c2cccnc2-n2cccc2)cc1F [Example 109, 4-[2,6-difluoro-4-(2-pyrrol-1-yl-3-pyridyl)phenoxy]butanoic acid] | 200 to 2000 nM | 
17 | Cc1cnn(-c2ncccc2-c2cc(F)c(OCCCC(=O)O)c(F)c2)c1 [Example 110, 4-[2,6-difluoro-4-[2-(4-methylpyrazol-1-yl)-3-pyridyl]phenoxy]butanoic acid] | > 20000 nM | 
18 | O=C(O)CCCOc1c(F)cc(-c2cccnc2N2CCOCC2)cc1F [Example 111, 4-[2,6-difluoro-4-(2-morpholino-3-pyridyl)phenoxy]butanoic acid] | > 20000 nM | 
19 | O=C(O)CCCOc1c(F)cc(-c2cccnc2NCC2CCOCC2)cc1F [Example 112, 4-[2,6-difluoro-4-[2-(tetrahydropyran-4-ylmethylamino)-3-pyridyl]phenoxy]butanoic acid] | > 20000 nM | 
20 | C[C@@H](CCC(=O)O)Oc1c(F)cc(-c2cccnc2SC2CCC2)cc1F [Example 114, (4S)-4-[4-(2-cyclobutylsulfanyl-3-pyridyl)-2,6-difluoro-phenoxy]pentanoic acid] | < 200 nM | 
21 | C[C@H](CCC(=O)O)Oc1c(F)cc(-c2cccc(OC3CCC3)c2)cc1F [Example 116, (4R)-4-[4-[3-(cyclobutoxy)phenyl]-2,6-difluoro-phenoxy]pentanoic acid] | < 200 nM | 
22 | C[C@H](CCC(=O)O)Oc1c(F)cc(-c2cccc(Oc3ccccc3)c2)cc1F [Example 118, (4R)-4-[2,6-difluoro-4-(3-phenoxyphenyl)phenoxy]pentanoic acid] | < 200 nM | 
23 | CC(C)Oc1cccc(-c2cc(F)c(SCC3(CC(=O)O)CC3)c(F)c2)c1 [Example 121, [1-(3,5-difluoro-3′-isopropoxy-biphenyl-4-ylsulfanylmethyl)-cyclopropyl]-acetic acid] | < 200 nM | 
24 | O=C(O)CCCSc1c(F)cc(-c2cccc(OC3CCCC3)c2)cc1F [Example 122, 4-(3′-cyclopentyloxy-3,5-difluoro-biphenyl-4-ylsulfanyl)-butyric acid] | < 200 nM | 
25 | O=C(O)CCCSc1ccc(-c2cccc(Oc3ccccc3)c2)cc1 [Example 125, 4-(3′-phenoxy-biphenyl-4-ylsulfanyl)-butyric acid] | < 200 nM | 

Further lines, results first:

Row | EC50 [1] | EC50 | SMILES
26 | > 20000 nM |  | O=C(O)CCCOc1c(F)cc(-c2cccnc2NC2CC2)cc1F [Example 77, 4-[4-[2-(cyclopropylamino)-3-pyridyl]-2,6-difluoro-phenoxy]butanoic acid]
27 | < 200 nM |  | O=C(O)CCCOc1c(F)cc(-c2ccccc2NC2CCCC2)cc1F [Example 79, 4-[4-[2-(cyclopentylamino)phenyl]-2,6-difluoro-phenoxy]butanoic acid]
28 | < 200 nM |  | O=C(O)CCCOc1c(F)cc(-c2cccc(NC3CCCC3)c2)cc1F [Example 80, 4-[4-[3-(cyclopentylamino)phenyl]-2,6-difluoro-phenoxy]butanoic acid]
29 | < 200 nM |  | CCCNc1ccccc1-c1cc(F)c(OCCCC(=O)O)c(F)c1 [Example 81, 4-[2,6-difluoro-4-[2-(propylamino)phenyl]phenoxy]butanoic acid]
30 | < 200 nM |  | O=C(O)CCCOc1c(F)cc(-c2ccccc2NCC2CC2)cc1F [Example 82, 4-[4-[2-(cyclopropylmethylamino)phenyl]-2,6-difluoro-phenoxy]butanoic acid]
31 |  | 200 to 2000 nM | CC(C)Nc1ccccc1-c1cc(F)c(OCCCC(=O)O)c(F)c1 [Example 83, 4-[2,6-difluoro-4-[2-(isopropylamino)phenyl]phenoxy]butanoic Acid]
32 | 200 to 2000 nM |  | O=C(O)CCCOc1ccc(-c2ccccc2NCC2CC2)cc1 [Example 85, 4-[4-[2-(cyclopropylmethylamino)phenyl]phenoxy]butanoic acid]
33 | 200 to 2000 nM |  | CCCNc1ccccc1-c1ccc(OCCCC(=O)O)cc1 [Example 86, 4-[4-[2-(propylamino)phenyl]phenoxy]butanoic acid]
34 | 200 to 2000 nM |  | CC(C)Nc1ccccc1-c1ccc(OCCCC(=O)O)cc1 [Example 87, 4-[4-[2-(isopropylamino)phenyl]phenoxy]butanoic acid]
35 | 200 to 2000 nM |  | O=C(O)CCCOc1ccc(-c2ccccc2NC2CCC2)cc1 [Example 88, 4-[4-[2-(cyclobutylamino)phenyl]phenoxy]butanoic acid]
36 | < 200 nM |  | O=C(O)CCCOc1c(F)cc(-c2ccccc2NC2CCC2)cc1F [Example 89, 4-[4-[2-(cyclobutylamino)phenyl]-2,6-difluoro-phenoxy]butanoic acid]
37 | 200 to 2000 nM |  | O=C(O)CCCOc1c(F)cc(-c2cc(Cl)ccc2NC2CCCC2)cc1F [Example 95, 4-[4-[5-chloro-2-(cyclopentylamino)phenyl]-2,6-difluoro-phenoxy]butanoic acid]
38 | < 200 nM |  | O=C(O)CCCOc1c(F)cc(-c2cc(F)ccc2NC2CCCC2)cc1F [Example 96, 4-[4-[2-(cyclopentylamino)-5-fluoro-phenyl]-2,6-difluoro-phenoxy]butanoic acid]
39 | < 200 nM |  | O=C(O)CCCOc1c(F)cc(-c2ccccc2CC2CCCC2)cc1F [Example 99, 4-[4-[2-(cyclopentylmethyl)phenyl]-2,6-difluoro-phenoxy]butanoic acid]
40 | < 200 nM |  | O=C(O)CCCOc1c(F)cc(-c2ccccc2CC2CCC2)cc1F [Example 101, 4-[4-[2-(cyclobutylmethyl)phenyl]-2,6-difluoro-phenoxy]butanoic acid]
41 | < 200 nM |  | O=C(O)CCCOc1c(F)cc(-c2ccccc2C2CCCC2)cc1F [Example 104, 4-[4-(2-cyclopentylphenyl)-2,6-difluoro-phenoxy]butanoic acid]
42 | < 200 nM |  | O=C(O)CCCSc1ccc(-c2cccnc2OC2CCCC2)cc1 [Example 123, 4-[4-(2-cyclopentyloxy-pyridin-3-yl)-phenylsulfanyl]-butyric acid]
43 | 200 to 2000 nM |  | O=C(O)CCCSc1ccc(-c2cccnc2OCC2CC2)cc1 [Example 124, 4-[4-(2-cyclopropylmethoxy-pyridin-3-yl)-phenylsulfanyl]-butyric acid]
